These results are taken from patent publication US11925629B2, “Heterocyclic inhibitors of ERK1 and ERK2 and their use in the treatment of cancer” (Asana Biosciences, LLC, priority 2015, dated 2024).

Assay type in all cases: cell-based, human
Assay [1] relates to HCT116 (colorectal carcinoma, K Ras G13D) cells. As to the kind of experiment: Cell proliferation (Alamar Blue) assay, HCT116. The following applies: Homo sapiens, HCT-116, HCT116 cells. The method, boiled down: (§1)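 After overnight plating (16-24 h), cells were treated for 72 h with compound dilutions spanning roughly 0.0005 to 10 uM. Proliferation was measured by Alamar Blue fluorescence and IC50 values derived from variable-slope dose-response curves.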

The subject of assay [2] is HT-29 (colorectal carcinoma, B-RafV600E) cells. As to the kind of experiment: Cell proliferation (Alamar Blue) assay, HT-29. The following applies: Homo sapiens, HT-29, HT29 cells. Put shortly:
as §1
For orientation: Resazurin is reduced to fluorescent resorufin, in cell work by metabolically active cells.

Assay [3] deals with phosphorylation of RSK1(S380) (the downstream target of ERK1/2). The assay is described as follows: Phospho-RSK1(S380) ELISA assay in HT-29 cells. Conditions: Homo sapiens, HT-29, HT29 cells, read-out: Mechanistic Cell Assay RSK1 Phos HT29 IC50. The method, boiled down: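 HT-29 colorectal carcinoma cells (B-RafV600E), plated overnight at 37° C./5% CO2, were treated with compound dilutions for 2 h. Lysates were analysed by phospho-RSK1(Ser380) sandwich ELISA with absorbance at 450 nm. IC50 came from a sigmoidal variable-slope dose-response fit.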
(In general: ELISA stands for enzyme-linked immunosorbent assay.)

pIC50: −log10 of the molar value. Read-outs that look alike come from different tables or passages of the source. A value given as a limit tells only on which side of the number the result lay.

With `Cc1cnc(NC(C)c2ccccc2)nc1-n1ccc(C(=O)NC(CO)c2ccccc2)c1` (stereo not drawn) [Example 117, N-(2-hydroxy-1-phenyl-ethyl)-1-(5-methyl-2-((1-phenylethyl)amino)pyrimidin-4-yl)-1H-pyrrole-3-carboxamide], the pIC50 – broadly, the negative decadic logarithm of the IC50, by convention in mol/L – in assay [1] was below 5.60; in assay [2], below 5.60; in assay [3] (phospho-RSK1(S380)) it was 5.60 to 6.30.
`Cc1cnc(NC2CCOCC2)nc1-n1cnc(C(=O)NCc2ccccc2CO)c1` [Example 287, N-(2-(hydroxymethyl)benzyl)-1-(5-methyl-2-((tetrahydro-2H-pyran-4-yl)amino)pyrimidin-4-yl)-1H-imidazole-4-carboxamide]: the pIC50 in assay [1] is 6.30 to 6.60; in assay [2], at least 7.00; in assay [3] (phospho-RSK1(S380)), 5.60 to 6.30.
For `Cc1cnc(Nc2ccc3c(c2)OC(C)(C)O3)nc1-n1ccc(C(=O)NC(CO)c2ccccc2)c1` (stereo not drawn) [Example 95, 1-(2-((2,2-dimethyl-benzo[d][1,3]dioxol-5-yl)-amino)-5-methyl-pyrimidin-4-yl)-N-(2-hydroxy-1-phenylethyl)-1H-pyrrole-3-carboxamide], in that order: 5.60 to 6.30, 6.30 to 6.60 and 6.30 to 6.60.
Take `Cc1cnc(NC2CC2)nc1-n1ccc(C(=O)NC(CO)c2cccc(Cl)c2)c1` (stereo not drawn) [Example 115, N-(1-(3-chloro-phenyl)-2-hydroxy-ethyl)-1-(2-(cyclopropyl-amino)-5-methyl-pyrimidin-4-yl)-1H-pyrrole-3-carboxamide]: the pIC50 in assay [1] is below 5.60; in assay [2], below 5.60; in assay [3] (phospho-RSK1(S380)), 6.30 to 6.60.
For the compound `Cc1cnc(NC2CCOCC2)nc1-n1cnc(C(=O)N[C@H](CNCC(C)(C)C)c2cccc(Cl)c2)c1` [Example 337, (S)-N-(1-(3-chlorophenyl)-2-(neopentylamino)ethyl)-1-(5-methyl-2-((tetrahydro-2H-pyran-4-yl)amino)pyrimidin-4-yl)-1H-imidazole-4-carboxamide], the negative logarithm of the IC50 (pIC50) in assay [1] was 5.60 to 6.30; in assay [2] it was 6.60 to 7.00; in assay [3], 6.60 to 7.00.
With `Cc1cnc(Nc2ccc(F)cc2)cc1-n1ccc(C(=O)NC(CN)c2ccc(F)c(Cl)c2)c1` (stereo not drawn) [Example 164, N-(2-amino-1-(3-chloro-4-fluoro-phenyl)ethyl)-1-(2-((4-fluorophenyl)-amino)-5-methyl-pyridin-4-yl)-1H-pyrrole-3-carboxamide], the negative logarithm of the IC50 (pIC50) in assay [1] was below 5.60; in assay [2] it was 5.60 to 6.30; in assay [3] (phospho-RSK1(S380)), 5.60 to 6.30.
`Cc1cnc(NC2CCOCC2)nc1-n1cnc(C(=O)NCc2ccc(Cl)cc2CO)c1` [Example 343, N-(4-chloro-2-hydroxymethylbenzyl)-1-(5-methyl-2-((tetrahydro-2H-pyran-4-yl)amino)-pyrimidin-4-yl)-1H-imidazole-4-carboxamide]: the pIC50 in assay [1] was 6.30 to 6.60; in assay [2], 6.30 to 6.60; in assay [3], 6.60 to 7.00.
For the compound `Cc1cnc(NC2CCOCC2)nc1-n1cnc(C(=O)NCc2cccc(Cl)c2CO)c1` [Cmpd 93, N-(3-chloro-2-(hydroxy-methyl)benzyl)-1-(5-methyl-2-((tetrahydro-2H-pyran-4-yl)amino)-pyrimidin-4-yl)-1H-imidazole-4-carboxamide], the pIC50 in assay [1], in assay [2] and in assay [3] (phospho-RSK1(S380)) was at least 7.00 throughout.
As to `Cc1cnc(Nc2ccc(F)cc2)nc1-n1ccc(C(=O)NC(CO)c2ccccc2)c1` (stereo not drawn) [Example 114, 1-(2-((4-fluoro-phenyl)amino)-5-methyl-pyrimidin-4-yl)-N-(2-hydroxy-1-phenylethyl)-1H-pyrrole-3-carboxamide], the pIC50 in assay [1] was 6.30 to 6.60; in assay [2] it was 5.60 to 6.30; in assay [3] (phospho-RSK1(S380)), 6.60 to 7.00.
Turning to `Cc1cnc(NC2CCOC2)nc1-n1ccc(C(=O)NC(CO)c2ccccc2)c1` (stereo not drawn) [Example 128, N-(2-hydroxy-1-phenylethyl)-1-(5-methyl-2-((tetrahydro-furan-3-yl)amino)pyrimidin-4-yl)-1H-pyrrole-3-carboxamide], the negative logarithm of the IC50 (pIC50) is below 5.60 in assay [1], 5.60 to 6.30 in assay [2] and 5.60 to 6.30 in assay [3] (phospho-RSK1(S380)).
In the case of `C#Cc1cccc(Nc2nccc(-n3cc(NC(=O)N[C@H](CO)c4cccc(Cl)c4)cn3)n2)c1` [Example 38, (S)-1-(1-(3-chlorophenyl)-2-hydroxy-ethyl)-3-(1-(2-((3-ethynyl-phenyl)amino)pyrimidin-4-yl)-1H-pyrazol-4-yl)urea], the negative-log IC50 (pIC50) in assay [1], in assay [2] and in assay [3] (phospho-RSK1(S380)) was below 5.60 throughout.
For the compound `O=C(NC(CO)c1ccccc1)c1ccn(-c2nc(Nc3ccc4c(c3)OCO4)ncc2F)c1` (stereo not drawn) [Example 66, 1-(2-(benzo[d][1,3]dioxol-5-ylamino)-5-fluoro-pyrimidin-4-yl)-N-(2-hydroxy-1-phenylethyl)-1H-pyrrole-3-carboxamide], the pIC50 is 5.60 to 6.30 in assay [1], 6.30 to 6.60 in assay [2] and 6.60 to 7.00 in assay [3] (phospho-RSK1(S380)).
For `Cc1cnc(Nc2ccc3c(c2)OCCO3)nc1-n1ccc(C(=O)NC(CO)c2cccc(Cl)c2)c1` (stereo not drawn) [Example 139, N-(1-(3-chloro-phenyl)-2-hydroxy-ethyl)-1-(2-((2,3-dihydro-benzo[b][1,4]dioxin-6-yl)amino)-5-methyl-pyrimidin-4-yl)-1H-pyrrole-3-carboxamide], in that order: 6.60 to 7.00, 6.30 to 6.60 and at least 7.00.
In the case of `CNC[C@@H](NC(=O)c1cn(-c2nc(NC3CCOCC3)ncc2C)cn1)c1cccc(Cl)c1` [Example 326, (S)-N-(1-(3-chlorophenyl)-2-(methylamino)ethyl)-1-(5-methyl-2-((tetrahydro-2H-pyran-4-yl)amino)pyrimidin-4-yl)-1H-imidazole-4-carboxamide], the pIC50 in assay [1], in assay [2] and in assay [3] was at least 7.00 in each case.
Consider `Cc1cnc(NC2CCCOC2)nc1-n1ccc(C(=O)NC(CO)c2ccccc2)c1` (stereo not drawn) [Example 141, N-(2-hydroxy-1-phenylethyl)-1-(5-methyl-2-((tetrahydro-2H-pyran-3-yl)amino)-pyrimidin-4-yl)-1H-pyrrole-3-carboxamide], for which the pIC50 in assay [1], in assay [2] and in assay [3] (phospho-RSK1(S380)) was below 5.60 throughout.
Turning to `Cc1cnc(N[C@H]2CCOC2)nc1-n1ccc(C(=O)N[C@H](CO)c2cccc(Cl)c2)c1` [Example 161, N-((S)-1-(3-chlorophenyl)-2-hydroxy-ethyl)-1-(5-methyl-2-(((S)-tetra-hydrofuran-3-yl)amino)pyrimidin-4-yl)-1H-pyrrole-3-carboxamide], the pIC50 in assay [1] is 6.30 to 6.60; in assay [2], at least 7.00; in assay [3] (phospho-RSK1(S380)), at least 7.00.
As for `Cc1cnc(Nc2ccc(F)cc2)nc1-n1cnc(C(=O)NC(CO)c2ccccc2)c1` (stereo not drawn) [Example 118, 1-(2-((4-fluoro-phenyl)amino)-5-methyl-pyrimidin-4-yl)-N-(2-hydroxy-1-phenylethyl)-1H-imidazole-4-carboxamide], the pIC50 was 5.60 to 6.30 in assay [1], 6.60 to 7.00 in assay [2] and 6.30 to 6.60 in assay [3] (phospho-RSK1(S380)).
The like results for `COc1cnc(Nc2ccc(F)cc2Cl)nc1-n1ccc(C(=O)NC(CO)c2ccccc2)c1` (stereo not drawn) [Example 129, 1-(2-((2-chloro-4-fluorophenyl)amino)-5-methoxy-pyrimidin-4-yl)-N-(2-hydroxy-1-phenylethyl)-1H-pyrrole-3-carboxamide] were, in that order, below 5.60, below 5.60 and 5.60 to 6.30.
For `CC[C@@H](CO)Nc1cc(-n2ccc(C(=O)NC(CO)c3ccccc3)c2)c(C)cn1` (stereo partly drawn) [Example 100, N-(2-hydroxy-1-phenyl-ethyl)-1-(2-(((S)-1-hydroxy-butan-2-yl)amino)-5-methyl-pyridin-4-yl)-1H-pyrrole-3-carboxamide], in that order: below 5.60, below 5.60 and 6.30 to 6.60.
The like results for `Cc1cnc(NC2CCOCC2)nc1-n1cnc(C(=O)NCc2sccc2CO)c1` [Example 284, N-((3-(hydroxymethyl)thiophen-2-yl)methyl)-1-(5-methyl-2-((tetrahydro-2H-pyran-4-yl)amino)pyrimidin-4-yl)-1H-imidazole-4-carboxamide] were, in that order, 5.60 to 6.30, 6.30 to 6.60 and 5.60 to 6.30.
In the case of `Cc1cnc(Nc2ccc3c(c2)OCO3)nc1-n1ccc(C(=O)NC(CO)c2ccc(F)cc2)c1` (stereo not drawn) [Example 172, 1-(2-(benzo[d][1,3]dioxol-5-ylamino)-5-methylpyrimidin-4-yl)-N-(1-(4-fluorophenyl)-2-hydroxyethyl)-1H-pyrrole-3-carboxamide], the pIC50 in assay [1] is 6.30 to 6.60; in assay [2], 5.60 to 6.30; in assay [3] (phospho-RSK1(S380)) it was 6.60 to 7.00.
In the case of `Cc1cnc(Nc2ccc(F)c(C(=O)N(C)C)c2)nc1-n1ccc(C(=O)NC(CO)c2cccc(Cl)c2)c1` (stereo not drawn) [Example 194, N-(1-(3-chlorophenyl)-2-hydroxyethyl)-1-(2-((3-(dimethylcarbamoyl)-4-fluorophenyl)amino)-5-methylpyrimidin-4-yl)-1H-pyrrole-3-carboxamide], the pIC50 in assay [1] was 5.60 to 6.30; in assay [2] it was 6.30 to 6.60; in assay [3] (phospho-RSK1(S380)), 6.30 to 6.60.
Take `O=C(N[C@H](CO)c1cccc(Cl)c1)c1ccn(-c2ccnc(NC3CCOC3)c2)c1` (stereo partly drawn) [Example 188, N-((S)-1-(3-chlorophenyl)-2-hydroxyethyl)-1-(2-((tetrahydrofuran-3-yl)amino)pyridin-4-yl)-1H-pyrrole-3-carboxamide]: the pIC50 in assay [1], in assay [2] and in assay [3] (phospho-RSK1(S380)) was below 5.60 each time.
